Assay results reported in US9365576B2, “Pyrrolopyrrolidinone compounds” (Novartis AG, priority 2012, dated 2016).
pIC50: −log10 of the molar value.

The molecules below were run against human MDM2 protein (amino acids 2-188) (Homo sapiens (Human), UniProt Q00987) (assay: TR-FRET assay, p53-MDM2 Assay 2 (modified)). Conditions: TR-FRET; 0.1 nM MDM2, 0.1 nM Europium labeled streptavidin, Tecan genios Pro reader; read-out: IC50 p53-MDM2 Assay 2.
Type: binding
Outline: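 IC50 values were curve-fitted from the time-resolved 665/620 nm emission ratio after 340 nm excitation. The assay combined 0.625 nM europium-streptavidin donor with 1.25 nM C-terminally biotinylated MDM2 2–188 (15 min, RT), followed by 15 min with 10 nM Cy5-labeled p53 18–26 acceptor peptide.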

Sequence of human MDM2 protein (amino acids 2-188) (Q00987 2-188): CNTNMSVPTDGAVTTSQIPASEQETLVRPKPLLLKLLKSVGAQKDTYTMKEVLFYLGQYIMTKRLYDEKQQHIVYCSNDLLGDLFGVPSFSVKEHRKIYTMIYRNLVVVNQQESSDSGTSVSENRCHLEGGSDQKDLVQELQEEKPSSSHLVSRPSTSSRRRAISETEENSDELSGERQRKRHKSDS

Row | Structure (SMILES) | pIC50
1 | COc1cccnc1-c1cc2c(n1C(C)C)C(c1ccc(Cl)cc1)N(c1cc(Cl)ccc1C)C2=O (stereo not shown) [Example 113, 5-(5-Chloro-2-methyl-phenyl)-6-(4-chloro-phenyl)-1-isopropyl-2-(3-methoxy-pyridin-2-yl)-5,6-dihydro-1H-pyrrolo[3,4-b]pyrrol-4-one] | 9.67
2 | COc1ccc(S(C)(=O)=O)cc1-c1cc2c(n1C(C)C)C(c1ccc(Cl)cc1)N(c1cc(Cl)ccc1C)C2=O (stereo not shown) [Example 114, 5-(5-Chloro-2-methyl-phenyl)-6-(4-chloro-phenyl)-1-isopropyl-2-(5-methanesulfonyl-2-methoxy-phenyl)-5,6-dihydro-1H-pyrrolo[3,4-b]pyrrol-4-one] | 9.74
3 | COc1ccccc1-c1c(F)c2c(n1C(C)C)C(c1ccc(Cl)cc1)N(c1cc(Cl)ccc1C)C2=O (stereo not shown) [Example 115, 5-(5-Chloro-2-methyl-phenyl)-6-(4-chloro-phenyl)-3-fluoro-1-isopropyl-2-(2-methoxy-phenyl)-5,6-dihydro-1H-pyrrolo[3,4-b]pyrrol-4-one] | 9.31
4 | COc1ccccc1-c1cc2c(n1C(C)C)C(C)(c1ccc(Cl)cc1)N(c1cc(Cl)ccc1C)C2=O (stereo not shown) [Example 116, 5-(5-Chloro-2-methyl-phenyl)-6-(4-chloro-phenyl)-1-isopropyl-2-(2-methoxy-phenyl)-6-methyl-5,6-dihydro-1H-pyrrolo[3,4-b]pyrrol-4-one] | 9.30
5 | COc1ccc(CC(=O)O)cc1-c1cc2c(n1C(C)C)C(c1ccc(Cl)cc1)N(c1cc(Cl)c(=O)n(C)c1)C2=O (stereo not shown) [Example 118, {3-[5-(5-Chloro-1-methyl-6-oxo-1,6-dihydro-pyridin-3-yl)-6-(4-chloro-phenyl)-1-isopropyl-4-oxo-1,4,5,6-tetrahydro-pyrrolo[3,4-b]pyrrol-2-yl]-4-methoxy-phenyl}-acetic acid] | 9.51
6 | COc1ccc(S(C)(=O)=O)cc1-c1cc2c(n1C(C)C)C(c1ccc(Cl)cc1)N(c1cc(Cl)c(=O)n(C)c1)C2=O (stereo not shown) [Example 119, 5-(5-Chloro-1-methyl-6-oxo-1,6-dihydro-pyridin-3-yl)-6-(4-chloro-phenyl)-1-isopropyl-2-(5-methanesulfonyl-2-methoxy-phenyl)-5,6-dihydro-1H-pyrrolo[3,4-b]pyrrol-4-one] | 9.77
7 | CNc1ncc(-c2cc3c(n2C(C)C)C(c2ccc(Cl)cc2)N(c2cc(Cl)c[nH]c2=O)C3=O)c(OC)n1 (stereo not shown) [Example 124, 5-(5-Chloro-2-oxo-1,2-dihydro-pyridin-3-yl)-6-(4-chloro-phenyl)-1-isopropyl-2-(4-methoxy-2-methylamino-pyrimidin-5-yl)-5,6-dihydro-1H-pyrrolo[3,4-b]pyrrol-4-one] | 9.73
8 | COc1nc(N(C)C)ncc1-c1cc2c(n1C(C)C)C(c1ccc(C#N)cc1)N(c1cc(Cl)c[nH]c1=O)C2=O (stereo not shown) [Example 127, 4-[5-(5-Chloro-2-oxo-1,2-dihydro-pyridin-3-yl)-2-(2-dimethylamino-4-methoxy-pyrimidin-5-yl)-1-isopropyl-4-oxo-1,4,5,6-tetrahydro-pyrrolo[3,4-b]pyrrol-6-yl]-benzonitrile] | 9.44
9 | CNc1ncc(-c2cc3c(n2C(C)C)C(c2ccc(C#N)cc2)N(c2cc(Cl)c[nH]c2=O)C3=O)c(OC)n1 (stereo not shown) [Example 128, 4-[5-(5-Chloro-2-oxo-1,2-dihydro-pyridin-3-yl)-1-isopropyl-2-(4-methoxy-2-methylamino-pyrimidin-5-yl)-4-oxo-1,4,5,6-tetrahydro-pyrrolo[3,4-b]pyrrol-6-yl]-benzonitrile] | 9.28
10 | COc1nc(N)ncc1-c1cc2c(n1C(C)C)C(c1ccc(C#N)cc1)N(c1cc(Cl)cn(C)c1=O)C2=O (stereo not shown) [Example 129, 4-[2-(2-Amino-4-methoxy-pyrimidin-5-yl)-5-(5-chloro-1-methyl-2-oxo-1,2-dihydro-pyridin-3-yl)-1-isopropyl-4-oxo-1,4,5,6-tetrahydro-pyrrolo[3,4-b]pyrrol-6-yl]-benzonitrile] | 8.25
11 | CNc1ncc(-c2cc3c(n2C(C)C)C(c2ccc(C#N)cc2)N(c2cc(Cl)c(=O)n(C)c2)C3=O)c(OC)n1 (stereo not shown) [Example 133, 4-[5-(5-Chloro-1-methyl-6-oxo-1,6-dihydro-pyridin-3-yl)-1-isopropyl-2-(4-methoxy-2-methylamino-pyrimidin-5-yl)-4-oxo-1,4,5,6-tetrahydro-pyrrolo[3,4-b]pyrrol-6-yl]-benzonitrile] | 9.49

The remaining molecules from weak to strong by pIC50, led by results:

Row | pIC50 | Structure (SMILES)
12 | 7.11 | COc1ncc(-c2cc3c(n2C(C)C)[C@@H](c2ccc(Cl)cc2)N(c2cc(Cl)c(=O)n(C)c2)C3=O)c(OC)n1 [Example 122, (R)-5-(5-Chloro-1-methyl-6-oxo-1,6-dihydro-pyridin-3-yl)-6-(4-chloro-phenyl)-2-(2,4-dimethoxy-pyrimidin-5-yl)-1-isopropyl-5,6-dihydro-1H-pyrrolo[3,4-b]pyrrol-4-one]
13 | 8.49 | COc1nc(N)ncc1-c1cc2c(n1C(C)C)C(c1ccc(C#N)cc1)N(c1cc(Cl)c[nH]c1=O)C2=O (stereo not shown) [Example 125, 4-[2-(2-Amino-4-methoxy-pyrimidin-5-yl)-5-(5-chloro-2-oxo-1,2-dihydro-pyridin-3-yl)-1-isopropyl-4-oxo-1,4,5,6-tetrahydro-pyrrolo[3,4-b]pyrrol-6-yl]-benzonitrile]
14 | 8.73 | COc1ncc(-c2cc3c(n2C(C)C)C(c2ccc(Cl)cc2)N(c2cn(C)c(=O)cc2C)C3=O)c(OC)n1 (stereo not shown) [Example 111, 6-(4-Chloro-phenyl)-2-(2,4-dimethoxy-pyrimidin-5-yl)-5-(1,4-dimethyl-6-oxo-1,6-dihydro-pyridin-3-yl)-1-isopropyl-5,6-dihydro-1H-pyrrolo[3,4-b]pyrrol-4-one]
15 | 8.90 | COc1nc(N)ncc1-c1cc2c(n1C(C)C)C(c1ccc(C#N)cc1)N(c1c[nH]c(=O)c(Cl)c1)C2=O (stereo not shown) [Example 134, 4-[2-(2-Amino-4-methoxy-pyrimidin-5-yl)-5-(5-chloro-6-oxo-1,6-dihydro-pyridin-3-yl)-1-isopropyl-4-oxo-1,4,5,6-tetrahydro-pyrrolo[3,4-b]pyrrol-6-yl]-benzonitrile]
16 | 8.94 | COc1ncc(-c2cc3c(n2C(C)C)C(c2ccc(C#N)cc2)N(c2cc(Cl)cn(C)c2=O)C3=O)c(OC)n1 (stereo not shown) [Example 132, 4-[5-(5-Chloro-1-methyl-2-oxo-1,2-dihydro-pyridin-3-yl)-2-(2,4-dimethoxy-pyrimidin-5-yl)-1-isopropyl-4-oxo-1,4,5,6-tetrahydro-pyrrolo[3,4-b]pyrrol-6-yl]-benzonitrile]
17 | 8.97 | CNc1ncc(-c2cc3c(n2C(C)C)C(c2ccc(C#N)cc2)N(c2cc(Cl)cn(C)c2=O)C3=O)c(OC)n1 (stereo not shown) [Example 130, 4-[5-(5-Chloro-1-methyl-2-oxo-1,2-dihydro-pyridin-3-yl)-1-isopropyl-2-(4-methoxy-2-methylamino-pyrimidin-5-yl)-4-oxo-1,4,5,6-tetrahydro-pyrrolo[3,4-b]pyrrol-6-yl]-benzonitrile]
18 | 9.11 | COc1ncc(-c2cc3c(n2C(C)C)C(c2ccc(C#N)cc2)N(c2cc(Cl)c[nH]c2=O)C3=O)c(OC)n1 (stereo not shown) [Example 126, 4-[5-(5-Chloro-2-oxo-1,2-dihydro-pyridin-3-yl)-2-(2,4-dimethoxy-pyrimidin-5-yl)-1-isopropyl-4-oxo-1,4,5,6-tetrahydro-pyrrolo[3,4-b]pyrrol-6-yl]-benzonitrile]
19 | 9.37 | COc1ncc(-c2cc3c(n2C(C)C)C(c2ccc(C#N)cc2)N(c2c[nH]c(=O)c(Cl)c2)C3=O)c(OC)n1 (stereo not shown) [Example 135, 4-[5-(5-Chloro-6-oxo-1,6-dihydro-pyridin-3-yl)-2-(2,4-dimethoxy-pyrimidin-5-yl)-1-isopropyl-4-oxo-1,4,5,6-tetrahydro-pyrrolo[3,4-b]pyrrol-6-yl]-benzonitrile]
20 | 9.41 | COc1nc(N(C)C)ncc1-c1cc2c(n1C(C)C)C(c1ccc(Cl)cc1)N(c1cn(C)c(=O)cc1C)C2=O (stereo not shown) [Example 112, 6-(4-Chloro-phenyl)-2-(2-dimethylamino-4-methoxy-pyrimidin-5-yl)-5-(1,4-dimethyl-6-oxo-1,6-dihydro-pyridin-3-yl)-1-isopropyl-5,6-dihydro-1H-pyrrolo[3,4-b]pyrrol-4-one]
21 | 9.53 | COc1nc(N(C)C)ncc1-c1cc2c(n1C(C)C)C(c1ccc(C#N)cc1)N(c1cc(Cl)cn(C)c1=O)C2=O (stereo not shown) [Example 131, 4-[5-(5-Chloro-1-methyl-2-oxo-1,2-dihydro-pyridin-3-yl)-2-(2-dimethylamino-4-methoxy-pyrimidin-5-yl)-1-isopropyl-4-oxo-1,4,5,6-tetrahydro-pyrrolo[3,4-b]pyrrol-6-yl]-benzonitrile]
22 | 9.68 | COc1ncc(-c2cc3c(n2C(C)C)C(C)(c2ccc(Cl)cc2)N(c2cc(Cl)c(=O)n(C)c2)C3=O)c(OC)n1 (stereo not shown) [Example 117, 5-(5-Chloro-1-methyl-6-oxo-1,6-dihydro-pyridin-3-yl)-6-(4-chloro-phenyl)-2-(2,4-dimethoxy-pyrimidin-5-yl)-1-isopropyl-6-methyl-5,6-dihydro-1H-pyrrolo[3,4-b]pyrrol-4-one]
23 | 9.78 | COc1ncc(-c2c(C#N)c3c(n2C(C)C)C(c2ccc(Cl)cc2)N(c2cc(Cl)c(=O)n(C)c2)C3=O)c(OC)n1 (stereo not shown) [Example 120, 5-(5-Chloro-1-methyl-6-oxo-1,6-dihydro-pyridin-3-yl)-6-(4-chloro-phenyl)-2-(2,4-dimethoxy-pyrimidin-5-yl)-1-isopropyl-4-oxo-1,4,5,6-tetrahydro-pyrrolo[3,4-b]pyrrole-3-carbonitrile]
24 | 9.88 | COc1nc(N(C)C)ncc1-c1cc2c(n1C(C)C)C(c1ccc(C#N)cc1)N(c1c[nH]c(=O)c(Cl)c1)C2=O (stereo not shown) [Example 136, 4-[5-(5-Chloro-6-oxo-1,6-dihydro-pyridin-3-yl)-2-(2-dimethylamino-4-methoxy-pyrimidin-5-yl)-1-isopropyl-4-oxo-1,4,5,6-tetrahydro-pyrrolo[3,4-b]pyrrol-6-yl]-benzonitrile]
25 | 9.97 | COc1nc(N(C)C)ncc1-c1cc2c(n1C(C)C)C(c1ccc(Cl)cc1)N(c1cc(Cl)c[nH]c1=O)C2=O (stereo not shown) [Example 123, 5-(5-Chloro-2-oxo-1,2-dihydro-pyridin-3-yl)-6-(4-chloro-phenyl)-2-(2-dimethylamino-4-methoxy-pyrimidin-5-yl)-1-isopropyl-5,6-dihydro-1H-pyrrolo[3,4-b]pyrrol-4-one]
